Data on 2 molecules can be found in patent US9371539B2, “DNA encoding ring zinc-finger protein and the use of the DNA in vectors and bacteria and in plants” (Board of Trustees of Michigan State University, priority 2006, dated 2016).

Assay [1] has as its system XERICO. Briefly: Expression of XERICO upon ABA treatment. Particulars: ABA 10 μM; up to 3-hours post-treatment. Type of assay: in vivo, Arabidopsis thaliana. As for the experimental part:
Total RNA was extracted using the Trizol reagent method (Gibco-BRL, Gaithersburg, Md.). For northern blot analysis, 10 μg of total RNA from each sample was denatured and separated using a 1% agarose-formaldehyde gel. RNA was transferred onto a Hybond-N+ membrane (Stratagene, La Jolla, Calif.) by capillary action. Gene-specific probes were prepared by PCR and labeled with [^32P]-dCTP using a Prime-it II Random Primer Labeling kit (Stratagene, La Jolla, Calif.). Primers used in this analysis were following: XERICO (forward; SEQ ID NO:439, 5′-[…]-3 and reverse; SEQ ID NO:440, 5′-[…]-3′), AtNCED3 (forward, SEQ ID NO:441, 5′-[…]-3′ and reverse; SEQ ID NO:442, 5′-[…]-3′), AtCYP707A2 (forward; SEQ ID NO:443, 5′-[…]-3′ and reverse; SEQ ID NO:444, 5′-[…]-3′), RD29a (forward; SEQ ID NO:445, 5′-[…]-3′ and reverse; SEQ ID NO:446, 5′-[…]-3′), and Actin 8 (forward; SEQ ID NO:447, 5′-[…]-3′ and reverse; SEQ ID […], 5′-[…]-3′). Hybridization was carried out using ULTRAhyb® according to the manufacturer's instructions (Ambion, Austin, Tex.), and a Kodak Biomax film (Sigma) was exposed to the blot. An Actin 8 gene (SEQ ID NO:457) or ethidium bromide-stained ribosomal RNA was used as a loading control.

Assay [2] has as its system Arabidopsis thaliana. As to the kind of experiment: Effect of ABA on seed germination (radicle emergence >1 mm). Type of assay: in vivo. As to the method:
(§1) Arabidopsis thaliana, ecotype Columbia (Col), was used as the wild-type plant for phenotypic assays for comparison to transgenic 35S::XERICO Arabidopsis thaliana, plants in these experiments. Unless noted otherwise, plants were grown under sterile conditions on MS nutrient agar media (1×MS basal medium (Sigma, stock number M5519) with 2% sucrose and 0.3% phytagel (Sigma) containing 2% sucrose or on soil in a growth chamber (16 h light/8 h dark) at 23° C., after stratification. For monitoring of hypocotyl elongation and root growth with response salt/osmotic stress, a minimum of 20 seeds were sowed on MS nutrient agar media containing specified treatments, following which the plates were held in the vertical position for 7 days. For testing the effects of ABA on germination and early seedling growth, seeds were grown horizontally. For abiotic stress treatments, wild-type seedlings were grown on MS nutrient agar media containing 2% sucrose for 10-days and then treated the stresses indicated in FIG. 1, for up to 24 hour without a treatment control. Samples were collected at the indicated time and frozen immediately in liquid N2 and were stored at −80° C. until use. Experiments were performed in triplicates and repeated at least three times.
(§2) Since the hypersensitivity to salt or osmotic stress was the most prominent phenotype of the three independent T3 homozygous lines of 35S::XERICO plants, the functional relationship of the gene with ABA, a plant stress hormone involved in salt and drought stress adaptation, was investigated. […] Although 35S::XERICO plants germinated slightly later than wild-type even in the absence of exogenous ABA (FIG. 3c), germination was further delayed following ABA treatment. At 0.1 μM of ABA, 13% of 35S::XERICO plants were germinated 1.5 day after sowing, while 43% of wild-type seeds germinated. […] Germination was scored by the emergence of a radicle (>1 mm). The number of ‘cotyledon opening’ of seedlings at five days after sowing were counted and recorded. […]

Assay [3] concerns AtNCED3. As to the kind of experiment: RNA gel blot analysis of response to ABA treatment. The following applies: 10 μM ABA up to 24 hour; both wild-type and 35S::XERICO plants. The assay is classed as in vivo, Arabidopsis thaliana. As to the method:
(a) RNA gel blot analysis showing a response to ABA. Wild-type (WT) and 35S::XERICO plants were grown on MS nutrient agar media for 10 days and then treated with 10 μM of ABA for up to 24 hour. Total RNA was isolated at the indicated times after treatment. Each lane was loaded with 10 μg total RNA. The RNA blot was hybridized with [^32P]-labeled gene specific probes for AtNCED3 (SEQ ID NO:452), AtCYP707A2 (SEQ ID NO:428) and RD29a (SEQ ID NO:386). Probing with Actin 8 (SEQ ID NO:455) was used as a RNA loading control. (b) RNA gel blot analysis in response to drought treatment. Wild-type (WT) and 35S::XERICO plants were grown on MS medium for 14 days and then dehydrated (see, EXAMPLE I).
Total RNA was extracted using the Trizol reagent method (Gibco-BRL, Gaithersburg, Md.). For northern blot analysis, 10 μg of total RNA from each sample was denatured and separated using a 1% agarose-formaldehyde gel. RNA was transferred onto a Hybond-N+ membrane (Stratagene, La Jolla, Calif.) by capillary action. Gene-specific probes were prepared by PCR and labeled with [^32P]-dCTP using a Prime-it II Random Primer Labeling kit (Stratagene, La Jolla, Calif.). […]

Assay [4] deals with Arabidopsis thaliana. Briefly: Effect of ABA on early seedling growth and cotyledon opening. Type of assay: in vivo. As to the method:
as §1, §2

The target in assay [5] is T1, AtTLP9 (Arabidopsis thaliana, UniProt Q9SQU1).
T1 construct: expressed in transfected cells; host or cells: yeast strain AH109
T1 sequence (Q9SQU1 1-380): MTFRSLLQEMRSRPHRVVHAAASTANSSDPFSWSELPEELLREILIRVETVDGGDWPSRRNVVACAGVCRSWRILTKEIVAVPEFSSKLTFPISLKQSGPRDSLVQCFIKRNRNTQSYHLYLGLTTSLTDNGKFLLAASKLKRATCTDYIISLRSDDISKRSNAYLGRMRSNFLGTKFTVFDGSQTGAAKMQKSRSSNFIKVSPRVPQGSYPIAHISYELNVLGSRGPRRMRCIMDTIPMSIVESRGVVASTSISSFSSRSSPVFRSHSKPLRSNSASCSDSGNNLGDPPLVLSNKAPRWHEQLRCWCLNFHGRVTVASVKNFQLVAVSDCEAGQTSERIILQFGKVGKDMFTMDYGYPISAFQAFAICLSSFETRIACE
Briefly: Yeast two-hybrid screening. The assay is classed as binding. Particulars: yeast AH109; truncated XERICO without transmembrane domain as bait. As to the method: (§3) Two-hybrid screening was performed using the BD Matchmaker™ library construction and screening kit (Clonetech, Palo Alto, Calif.); pGADT7 was used as the base for a GAL4 activation domain (AD) vector and pGBKT7 was used for a GAL4 DNA-binding domain (DNA-BD) vector (pGADT7 and pGBKT7 were obtained from “BD Matchmaker Library Construction & Screening Kits” (Clontech, Palo Alto, Calif.)). The yeast strain AH109 (leu^−, trp^−, Ade^−, his^−) (obtained from “BD Matchmaker Library Construction & Screening Kits (Clontech, Palo Alto, Calif.)) with chromosomally integrated reporter genes lacZ and HIS under the control of the GAL1 promoter activated by the GAL4 transcription factor was used to host all constructs. Truncated XERICO cDNA without a transmembrane domain (SEQ ID NO: 451) was amplified by PCR using primers 5′-[…]-3′ (forward; SEQ ID NO:449) and 5′-[…]-3′ (reverse; SEQ ID NO:450) designed to contain EcoRI and PstI site, respectively. The amplified PCR product was digested with EcoRI and PstI, and subcloned into pGBKT7 as a fusion to the DNA binding domain of GAL4 and verified by sequencing. The pGBKT7/XERICO vector was used as a bait to screen an Arabidopsis thaliana cDNA library in pGADT7 as a fusion to the activation domain of GAL4. […]

Assay [6] addresses T2, AtUBC8 (Arabidopsis thaliana, UniProt P35131).
T2 construct: expressed in transfected cells; host or cells: yeast strain AH109
Briefly: Yeast two-hybrid screening. The assay is classed as binding. Particulars: yeast AH109; truncated XERICO without transmembrane domain as bait. As to the method: as §3

T2 sequence (P35131 whole entry): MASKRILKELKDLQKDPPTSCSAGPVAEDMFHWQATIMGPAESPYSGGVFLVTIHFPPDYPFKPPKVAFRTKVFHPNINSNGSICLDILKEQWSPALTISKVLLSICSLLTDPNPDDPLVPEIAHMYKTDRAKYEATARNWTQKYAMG

Take `CC1=CC(=O)CC(C)(C)[C@@]1(O)/C=C/C(C)=C\C(=O)O` [ABA, abscisic acid]: the “expression of XERICO” value in assay [1] was “no significant changes”. Also, the plants germinated in assay [2] (0.1 μM ABA, 1.5 day after sowing, 35S::XERICO plants) is 13%. Besides, the seeds germinated in assay [2] (0.1 μM ABA, 1.5 day after sowing, wild-type seeds) is on record as 43%. Further, in assay [2] (1.0 μM ABA, prolonged incubation, 35S::XERICO plants), the “plants failed to germinate” value was “more than 20%”. The “transcripts of AtNCED3” value in assay [3] is “clearly increased”. Further, the early seedling growth result in assay [4] (0.1 μM exogenous ABA, three independent lines of 35S::XERICO plants, compared to wild-type) was “arrested immediately after germination”. In addition, in assay [4] (1 μM ABA, five days after sowing, 35S::XERICO plants), the cotyledon opening result is “did not develop a cotyledon”. The “plants with opened cotyledons” value in assay [4] (1 μM ABA, five days after sowing, wild-type plants) was “approximately 80%”.

B1: XERICO: protein encoded by Arabidopsis thaliana gene AT2G04240; 162 amino acids, RING-H2 zinc-finger motif (protein)
chain: MGLSSLPGPSEGMLCVILVNTALSISIVKGIVRSFLGIVGISLSPSSSSPSSVTVSSENSSTSESFDFRVCQPESYLEEFRNRTPTLRFESLCRCKKQADNECSVCLSKFQGDSEINKLKCGHLFHKTCLEKWIDYWNITCPLCRTPLVVVPEDHQLSSNVW
In the case of B1, the “interaction with AtTLP9” value in assay [5] is given as “interacts”. Besides, the “interaction with AtUBC8” value in assay [6] was “interacts”.
